Experimental findings from ChEMBL document CHEMBL1201862, “PubChem BioAssay data set” (2004) are described below.

Test systems include ACHN; BT-549; CCRF-CEM; DMS-273; EKVX; HCC 2998; HCT-15; HL-60; Hs-578T; IGROV-1; M14; MDA-MB-435; MDA-N; NCI/ADR-RES; OVCAR-5; RXF 393; SF-295; SK-MEL-28; SK-MEL-5; TK-10.
Common to all, as to test: DTP human tumour cell line panel, 48 h

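Growth conditions: 96-well plates. Treatment: test compound, 48 hours, 5 concentrations. Analysis: linear interpolation between bracketing concentrations; unreached endpoints set to highest concentration. GI50 = concentration required for 50% inhibition of growth.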 Activity calls are given as the source filed them. Cut-off read from the data, not from the text of the source: active = GI50 up to about 1.1 µM and inactive = higher.

Regarding `C=C1C(=O)OC2CC3(C)OC3CC/C(C)=C/C(OC(C)=O)C12` (stereo not given), the GI50 (usually the concentration at which growth is held to half of that of the control) with ACHN is 11.2 µM (inactive); in the experiment with BT-549, 9.71 µM (inactive); in the experiment with CCRF-CEM it was 2.12 µM (inactive); in the experiment with DMS-273, 14.9 µM (inactive); with EKVX, 16.9 µM (inactive); in the experiment with HCC 2998, 16.9 µM (inactive). The GI50 was 5.57 µM in the experiment with HCT-15; 1.41 µM (inactive) with HL-60; 13.2 µM (inactive) in the experiment with Hs-578T; 17.1 µM (inactive) with IGROV-1; 3.32 µM (inactive) in the experiment with M14; 12.6 µM (inactive) in the experiment with MDA-MB-435. The GI50 in the experiment on MDA-N is 6.12 µM (inactive); with NCI/ADR-RES, 11.3 µM (inactive); with OVCAR-5, 8.51 µM (inactive); in the experiment on RXF 393 it was 4.79 µM (inactive); in the experiment on SF-295, 14 µM (inactive); with SK-MEL-28, 5.56 µM (inactive). Also, the results for the GI50 with SK-MEL-5 and in the experiment with TK-10 were 8.02 µM (inactive) and 3.61 µM (inactive), respectively.
For the molecule `Cc1cc(NC(=O)NC(=O)c2ccccc2N)ccc1Oc1ncc(Br)cn1`, the GI50 in the experiment on ACHN is 0.11 µM (active); in the experiment on BT-549, < 0.01 µM (active); in the experiment on CCRF-CEM, 0.0111 µM (active); with DMS-273 it was < 0.0316 µM (active); in the experiment with EKVX, 0.0826 µM (active); in the experiment on HCC 2998, 0.0154 µM (active). The GI50 was less than 0.0107 µM in the experiment on HCT-15; < 0.01 µM (active) in the experiment with HL-60; < 0.01 µM (active) with Hs-578T; < 0.011 µM (active) with IGROV-1; 0.0117 µM (active) in the experiment with M14; < 0.01 µM (active) in the experiment on MDA-MB-435. The GI50 in the experiment with MDA-N was < 0.01 µM (active); in the experiment with NCI/ADR-RES, < 0.01 µM (active); in the experiment on OVCAR-5, 0.0396 µM (active); in the experiment with RXF 393 it was 0.0244 µM (active); with SF-295 it was < 0.01 µM (active); with SK-MEL-28, < 0.01 µM (active). The GI50 with SK-MEL-5 is < 0.01 µM (active); in the experiment on TK-10, 0.239 µM (active).
As to `O=C(O)C1OC(n2cc(F)c(=O)[nH]c2=O)CC1O` (stereo not given), the GI50 with ACHN was 2.46 µM (inactive); with BT-549 it was 99.1 µM (inactive); in the experiment on CCRF-CEM, 3.44 µM (inactive); in the experiment on DMS-273 it was 12.9 µM (inactive); in the experiment on EKVX, > 82.8 µM (inactive); with HCC 2998, 0.574 µM (active). Further, the GI50 in the experiment with HCT-15 is 77.4 µM; in the experiment with HL-60, 30.8 µM (inactive); with Hs-578T, > 78.7 µM (inactive); in the experiment with IGROV-1, > 100 µM (inactive); in the experiment on M14, 29.4 µM (inactive); with MDA-MB-435, > 93.1 µM (inactive). For the same molecule, the GI50 is > 97.3 µM (inactive) in the experiment on MDA-N; 13.2 µM (inactive) with NCI/ADR-RES; > 100 µM (inactive) with OVCAR-5; > 87.9 µM (inactive) with RXF 393; 5.47 µM (inactive) in the experiment with SF-295; 53.1 µM (inactive) in the experiment on SK-MEL-28. Moreover, the GI50 in the experiment with SK-MEL-5 is 32.4 µM (inactive); in the experiment with TK-10 it was > 100 µM (inactive).
